Source: US12649750B2, “Macrocyclic compounds, compositions, and methods of using thereof” (Sionna Therapeutics Inc., priority 2022, dated 2026)

Columns and labels:
NBD1 = molecular target: T1, NBD1 (Homo sapiens, UniProt P13569); test: Aggregation analysis using differential static light scattering (DSLS), thermal stability of NBD1 (ΔTagg); format: binding; conditions: ΔTagg versus DMSO control, NBD1 0.2 mg/ml
T1 construct: Purified recombinant NBD1 was produced using previously described methods; made in house
T1 sequence (P13569 423-646 limits assumed): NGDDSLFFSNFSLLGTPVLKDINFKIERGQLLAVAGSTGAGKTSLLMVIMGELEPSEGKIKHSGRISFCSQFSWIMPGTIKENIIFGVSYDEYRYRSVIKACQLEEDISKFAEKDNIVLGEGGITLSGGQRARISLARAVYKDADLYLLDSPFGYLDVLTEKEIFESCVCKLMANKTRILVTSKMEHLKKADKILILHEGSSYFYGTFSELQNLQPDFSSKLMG
In short: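 Read-out is ΔTagg: the aggregation temperature, taken at the inflection of the light-scattering curve, less the average of DMSO control wells. Recombinant NBD1 (0.2 mg/ml, pH7.6 buffer containing 2 mM ATP) with test compound was heated at 1° C. per minute up to 70° C.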

CFTR = molecular target: T2, CFTR (Homo sapiens, UniProt P13569, DEL508-508); test: TECC24 AUC fold over DMSO @10 μM, CFTR-mediated transepithelial chloride transport in CF-HBE cells; format: cell-based; conditions: test agent AUC divided by DMSO vehicle AUC, primary CF-HBE cells, ΔF508 homozygous donor, 48 hours incubation
T2 construct: Primary human bronchial epithelial cells from a ΔF508 homozygous CF donor; host or cells: primary human bronchial epithelial cells (CF-HBE), ΔF508 homozygous donor
T2 sequence (P13569 with tags, fused parts or gaps DEL508-508): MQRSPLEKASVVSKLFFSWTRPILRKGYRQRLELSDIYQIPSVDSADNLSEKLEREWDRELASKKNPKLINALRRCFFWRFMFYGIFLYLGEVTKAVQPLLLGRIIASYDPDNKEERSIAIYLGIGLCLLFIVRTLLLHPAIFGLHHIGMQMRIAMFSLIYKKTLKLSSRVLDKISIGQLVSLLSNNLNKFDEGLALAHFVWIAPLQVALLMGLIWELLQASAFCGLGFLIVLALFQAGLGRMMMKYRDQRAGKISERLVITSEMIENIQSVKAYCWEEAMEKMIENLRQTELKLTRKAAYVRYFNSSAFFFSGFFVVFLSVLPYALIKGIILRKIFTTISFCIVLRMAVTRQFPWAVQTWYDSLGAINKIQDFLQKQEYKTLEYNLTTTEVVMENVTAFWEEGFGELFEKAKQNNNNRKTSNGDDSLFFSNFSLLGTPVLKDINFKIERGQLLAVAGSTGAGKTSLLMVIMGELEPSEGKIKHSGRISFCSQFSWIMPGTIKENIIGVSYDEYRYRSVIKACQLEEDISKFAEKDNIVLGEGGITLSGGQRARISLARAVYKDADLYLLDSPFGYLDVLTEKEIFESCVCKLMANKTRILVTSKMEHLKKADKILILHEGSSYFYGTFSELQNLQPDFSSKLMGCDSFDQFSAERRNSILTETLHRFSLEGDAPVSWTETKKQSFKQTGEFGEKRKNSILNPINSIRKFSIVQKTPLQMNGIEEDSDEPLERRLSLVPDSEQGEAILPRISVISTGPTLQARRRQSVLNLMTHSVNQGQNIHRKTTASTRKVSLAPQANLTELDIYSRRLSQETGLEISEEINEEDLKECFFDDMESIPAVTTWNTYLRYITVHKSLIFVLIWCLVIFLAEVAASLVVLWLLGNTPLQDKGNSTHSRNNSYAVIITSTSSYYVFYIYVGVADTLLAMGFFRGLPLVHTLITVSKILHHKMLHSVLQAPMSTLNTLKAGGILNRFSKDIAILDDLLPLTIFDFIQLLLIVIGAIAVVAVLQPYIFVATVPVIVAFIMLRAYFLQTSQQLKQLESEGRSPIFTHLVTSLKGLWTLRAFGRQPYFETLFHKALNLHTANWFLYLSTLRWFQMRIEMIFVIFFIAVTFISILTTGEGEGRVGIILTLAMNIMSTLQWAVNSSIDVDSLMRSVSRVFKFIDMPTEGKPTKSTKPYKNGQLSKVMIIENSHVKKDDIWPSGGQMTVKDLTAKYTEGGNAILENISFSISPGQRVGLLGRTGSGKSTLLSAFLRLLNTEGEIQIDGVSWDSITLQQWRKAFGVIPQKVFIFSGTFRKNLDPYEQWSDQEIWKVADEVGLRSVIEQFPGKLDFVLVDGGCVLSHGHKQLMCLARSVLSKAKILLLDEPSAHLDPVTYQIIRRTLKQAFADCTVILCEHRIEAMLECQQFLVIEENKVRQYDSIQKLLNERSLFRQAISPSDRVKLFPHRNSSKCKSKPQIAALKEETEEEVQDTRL
In short: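 Value is ratio of test-agent to DMSO AUC of equivalent transepithelial Cl− current, integrated from forskolin (10 μM) stimulation to CFTR inhibitor-172 (20 μM) block, with benzamil 10 μM present. CF-HBE (ΔF508/ΔF508) cultures had 48 h compound exposure at 10 μM, 36.5° C before recording.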

Structure (SMILES)	DSLS 3D (100 μM ΔT) (NBD1)	TECC (AUC, 10 μM) (CFTR)
C[C@@H](Cc1cccc([C@@]2(C)CCCC(C)(C)CS(=O)(=O)CCc3c(c(F)cc4[nH]ccc34)Oc3ccc(F)c(c3)-c3csc2n3)c1)C(=O)O [Compound 191, (2S)-3-[3-[(6R)-22,28-Difluoro-6,10,10-trimethyl-12,12-dioxo-24-oxa-4,12λ6-dithia-19,30-diazapentacyclo[23.3.1.12,5.015,23.016,20]triaconta-1(29),2,5(30),15,17,20,22,25,27-nonaen-6-yl]phenyl]-2-methyl-propanoic Acid]	C (a value greater than 10 °C and less than or equal to 25 °C is marked “C”)	B (a value between 12-20 is marked “B”)
C[C@@H](Cc1cccc(C2(C)CCCC(C)(C)CS(=O)(=O)CCc3c(c(F)cc4[nH]ccc34)Oc3ccc(F)c(c3)-c3nc2nn3C)c1)C(=O)NO (single isomer, unassigned) [Compound 185]	C (a value greater than 10 °C and less than or equal to 25 °C is marked “C”)	B (a value between 12-20 is marked “B”)
COC(=O)C(C)CCc1cccc(C2(C)CCCC(C)(C)CS(=O)(=O)CCc3c(c(F)cc4[nH]ccc34)Oc3ccc(F)c(c3)-c3nc2nn3C)c1 (stereo not drawn) [Compound 159, Methyl 4-[3-(22,28-difluoro-3,6,10,10-tetramethyl-12,12-dioxo-24-oxa-12λ6-thia-3,4,19,30-tetrazapentacyclo[23.3.1.12,5.015,23.016,20]triaconta-1(29),2(30),4,15,17,20,22,25,27-nonaen-6-yl)phenyl]-2-methyl-butanoate]	A (an ΔTagg value less than or equal to 5 °C is marked “A”)	B (a value between 12-20 is marked “B”)
C[C@@H](Cc1cccc([C@@]2(C)CCCC(C)(C)CS(=O)(=O)CCc3c(c(F)c(F)c4[nH]ccc34)[S+]([O-])c3ccc(F)c(c3)-c3nc2nn3C)c1)C(=O)O (single isomer, unassigned) [Compound 225B]	C (a value greater than 10 °C and less than or equal to 25 °C is marked “C”)	C (a value between 20 and 80 is marked “C”)
CC(Cc1cccc(C2(C)CCCC(C)(C)CS(=O)(=O)CCc3c(c(F)cc4[nH]ccc34)S(=O)(=O)c3ccc(F)c(c3)-c3nc2nn3C)c1)C(=O)O (single isomer, unassigned) [Compound 34B, 3-[3-(22,28-difluoro-3,6,10,10-tetramethyl-12,12,24,24-tetraoxo-12lambda6,24lambda6-dithia-3,4,19,30-tetrazapentacyclo[23.3.1.12,5.015,23.016,20]triaconta-1(29),2(30),4,15,17,20,22,25,27-nonaen-6-yl)phenyl]-2-methyl-propanoic Acid]	A (an ΔTagg value less than or equal to 5 °C is marked “A”)	A (a TECC value less than 12 is marked “A”)
Cn1nc2nc1-c1cc(ccc1F)[S+]([O-])c1c(F)cc3[nH]ccc3c1CCS(=O)(=O)CC(C)(C)CCC[C@]2(C)c1ccccc1 (single isomer, unassigned) [Compound 223A]	A (an ΔTagg value less than or equal to 5 °C is marked “A”)	A (a TECC value less than 12 is marked “A”)
[2H]C([2H])([2H])C1(c2cccc(CC3(C(=O)O)CC3)c2)CCCC(C)(C)CS(=O)(=O)CCc2c(c(F)cc3[nH]ccc23)Oc2ccc(F)c(c2)-c2nc1nn2C (single isomer, unassigned) [Compound 120B, 1-[[3-[22,28-difluoro-3,10,10-trimethyl-12,12-dioxo-6-(trideuteriomethyl)-24-oxa-12λ6-thia-3,4,19,30-tetrazapentacyclo[23.3.1.12,5.015,23.016,20]triaconta-1(29),2(30),4,15,17,20,22,25,27-nonaen-6-yl]phenyl]methyl]cyclopropanecarboxylic Acid]	A (an ΔTagg value less than or equal to 5 °C is marked “A”)	A (a TECC value less than 12 is marked “A”)
COCCOCCOCCOC(=O)[C@@H](C)Cc1cccc(C2(C)CCCC(C)(C)CS(=O)(=O)CCc3c(c(F)cc4[nH]ccc34)Oc3ccc(F)c(c3)-c3nc2nn3C)c1 (single isomer, unassigned) [Compound 165]	B (a value above 5 °C and less than or equal to 10 °C is marked “B”)	C (a value between 20 and 80 is marked “C”)
CC(Cc1cccc(C2CCCC(C)(C)CS(=O)(=O)CCc3c(c(F)cc4[nH]ccc34)Oc3cccc(c3)-c3ccn2n3)c1)C(=O)O (stereo not drawn) [Compound 25, 3-[3-(22-Fluoro-10,10-dimethyl-12,12-dioxo-24-oxa-12lambda6-thia-5,19,30-triazapentacyclo[23.3.1.12,5.015,23.016,20]triaconta-1(29),2(30),3,15,17,20,22,25,27-nonaen-6-yl)phenyl]-2-methyl-propanoic Acid]	C (a value greater than 10 °C and less than or equal to 25 °C is marked “C”)	A (a TECC value less than 12 is marked “A”)
CC1(c2cccc(CCC(=O)O)c2)CCCCCS(=O)(=O)CCc2c(c(F)cc3[nH]ccc23)Oc2ccc(F)c(c2)-c2ncc1[nH]2 (stereo not drawn) [Compound 37, 3-[3-(22,28-Difluoro-6-methyl-12,12-dioxo-24-oxa-12λ6-thia-3,19,30-triazapentacyclo[23.3.1.12,5.015,23.016,20]triaconta-1(29),2,4,15,17,20,22,25,27-nonaen-6-yl)phenyl]propanoic Acid]	C (a value greater than 10 °C and less than or equal to 25 °C is marked “C”)	A (a TECC value less than 12 is marked “A”)
C[C@@H](Cc1cccc([C@@]2(C)CCCC(C)(C)CS(=O)(=O)CCc3c(c(F)cc4[nH]ccc34)Oc3cnnc(c3)-c3nc2nn3C)c1)C(=O)O [Compound 256, (2S)-3-[3-[(6R)-22-Fluoro-3,6,10,10-tetramethyl-12,12-dioxo-24-oxa-12λ6-thia-3,4,19,27,28,30-hexazapentacyclo[23.3.1.12,5.015,23.016,20]triaconta-1(29),2(30),4,15,17,20,22,25,27-nonaen-6-yl]phenyl]-2-methyl-propanoic Acid]	C (a value greater than 10 °C and less than or equal to 25 °C is marked “C”)	C (a value between 20 and 80 is marked “C”)
Cn1nc2nc1-c1cc(ccn1)[S+]([O-])c1c(F)c(F)c3[nH]ccc3c1CCS(=O)(=O)CC(C)(C)CCC[C@]2(C)c1cccc(CC(O)CO)c1 (stereo in doubt) [Compound 292, (2R)-3-[3-[(6R)-21,22-difluoro-3,6,10,10-tetramethyl-12,12,24-trioxo-12λ6,24λ4-dithia-3,4,19,28,30-pentazapentacyclo[23.3.1.12,5.015,23.016,20]triaconta-1(29),2(30),4,15,17,20,22,25,27-nonaen-6-yl]phenyl]propane-1,2-diol]	C (a value greater than 10 °C and less than or equal to 25 °C is marked “C”)	C (a value between 20 and 80 is marked “C”)
C[C@@H](Cc1cccc(C2(C)CCCC(C)(C)CS(=O)(=O)CCc3c(c(F)cc4[nH]ccc34)[S+]([O-])c3ccc(F)c(c3)-c3nc2nn3C)n1)C(=O)O (single isomer, unassigned) [Compound 179A]	B (a value above 5 °C and less than or equal to 10 °C is marked “B”)	A (a TECC value less than 12 is marked “A”)
Cn1nc2nc1-c1cc(ccc1F)Oc1c(F)cc3[nH]ccc3c1CCS(=O)(=O)CC(C)(C)CCCC2(C#N)c1cccc(CCC(=O)O)c1 (stereo not drawn) [Compound 104, 3-[3-(6-Cyano-22,28-difluoro-3,10,10-trimethyl-12,12-dioxo-24-oxa-12lambda6-thia-3,4,19,30-tetrazapentacyclo[23.3.1.12,5.015,23.016,20]triaconta-1(29),2(30),4,15,17,20,22,25,27-nonaen-6-yl)phenyl]propanoic Acid]	C (a value greater than 10 °C and less than or equal to 25 °C is marked “C”)	C (a value between 20 and 80 is marked “C”)
Cn1nc2nc1-c1cc(ccn1)Sc1c(F)cc3[nH]ccc3c1CCS(=O)(=O)CC(C)(C)CCC[C@]2(C)c1cccc(CC2(C(=O)O)CC2)c1 [Compound 272, 1-[[3-[(6R)-22-Fluoro-3,6,10,10-tetramethyl-12,12-dioxo-12λ6,24-dithia-3,4,19,28,30-pentazapentacyclo[23.3.1.12,5.015,23.016,20]triaconta-1(29),2(30),4,15,17,20,22,25,27-nonaen-6-yl]phenyl]methyl]cyclopropanecarboxylic Acid]	C (a value greater than 10 °C and less than or equal to 25 °C is marked “C”)	C (a value between 20 and 80 is marked “C”)
